In US8993602B2, “Benzoic acid salt of otamixaban” (Sanofi, priority 2011, dated 2015):
Read-outs that look alike come from different tables or passages of the source.

What was measured:
[1] = for hygroscopicity (absorption or adsorption of water molecules from the surrounding environment): result in words
Description: Moreover, crystalline benzoic acid salt of Formula I may also be characterized by its dynamic vapor sorption (DVS) water vapor sorption and desorption isotherms measured at 25° C. Before starting the sorption cycle the crystalline salt of Formula I sample is treated with dry nitrogen gas.
Moisture sorption/desorption isotherms were recorded on a DVS-1000 from Surface Measurement Systems. […] Typical total measurement times for both cycles were about 20 to 30 hours.

factor Xa = target: T1, factor Xa (Homo sapiens, UniProt P00742); conditions: patients with stable coronary artery disease on usual comedication, some with mild renal impairment; cited from earlier work
T1 construct: from tissue; host or cells: blood of patients (in vivo; result quoted from Hinder et al. 2006)

models of thrombosis = conditions: rodent, canine and porcine models; cited from earlier work
[2] = test system: prothrombin fragments 1+2; conditions: highest dose regimen, versus unfractionated heparin; cited from earlier work
free factor Xa = free factor Xa (Homo sapiens, UniProt P00742); conditions: cited from earlier work
acute coronary syndrome = conditions: humans, recent clinical findings; cited from earlier work
[3] = target: factor Xa assembled in the prothrombinase complex (Factor Xa, Factor Va, calcium and phospholipid) (Homo sapiens, UniProt P00742); conditions: cited from earlier work
factor Xa assembled in the prothrombinase complex (Factor Xa, Factor Va, calcium and phospholipid), sequence (P00742 235-488 limits assumed): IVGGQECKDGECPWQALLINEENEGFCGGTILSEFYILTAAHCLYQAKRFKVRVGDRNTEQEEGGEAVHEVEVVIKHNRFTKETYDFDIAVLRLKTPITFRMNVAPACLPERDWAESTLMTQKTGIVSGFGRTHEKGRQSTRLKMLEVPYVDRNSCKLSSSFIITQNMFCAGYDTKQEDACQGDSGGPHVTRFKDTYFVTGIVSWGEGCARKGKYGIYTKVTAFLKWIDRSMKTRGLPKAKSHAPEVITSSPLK
factor Xa assembled in the prothrombinase complex (Factor Xa, Factor Va, calcium and phospholipid), sequence (P00742 41-179 partner limits assumed): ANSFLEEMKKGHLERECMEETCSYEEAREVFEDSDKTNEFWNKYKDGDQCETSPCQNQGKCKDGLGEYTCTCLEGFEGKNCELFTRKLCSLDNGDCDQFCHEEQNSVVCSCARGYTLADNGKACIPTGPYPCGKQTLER
factor Xa assembled in the prothrombinase complex (Factor Xa, Factor Va, calcium and phospholipid), sequence (P12259 29-737 partner limits assumed): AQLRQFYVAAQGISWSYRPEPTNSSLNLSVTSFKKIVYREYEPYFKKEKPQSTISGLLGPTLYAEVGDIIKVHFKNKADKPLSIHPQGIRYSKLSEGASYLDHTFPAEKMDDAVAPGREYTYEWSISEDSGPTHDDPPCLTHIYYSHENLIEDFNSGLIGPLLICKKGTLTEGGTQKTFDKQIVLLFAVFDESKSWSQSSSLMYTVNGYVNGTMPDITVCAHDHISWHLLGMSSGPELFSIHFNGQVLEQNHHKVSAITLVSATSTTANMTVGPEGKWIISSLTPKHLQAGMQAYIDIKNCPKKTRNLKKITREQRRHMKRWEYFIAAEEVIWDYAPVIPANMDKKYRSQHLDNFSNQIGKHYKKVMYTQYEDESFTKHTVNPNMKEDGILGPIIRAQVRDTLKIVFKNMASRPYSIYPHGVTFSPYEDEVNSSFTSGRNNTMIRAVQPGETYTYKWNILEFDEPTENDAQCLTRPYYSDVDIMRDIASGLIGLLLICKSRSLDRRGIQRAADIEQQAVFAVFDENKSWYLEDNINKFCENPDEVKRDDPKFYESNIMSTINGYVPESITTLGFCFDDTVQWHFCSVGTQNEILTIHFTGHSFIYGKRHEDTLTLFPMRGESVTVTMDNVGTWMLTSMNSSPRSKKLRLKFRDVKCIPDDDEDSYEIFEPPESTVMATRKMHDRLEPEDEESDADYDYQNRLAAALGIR
factor Xa assembled in the prothrombinase complex (Factor Xa, Factor Va, calcium and phospholipid), sequence (P12259 1574-2224 partner limits assumed): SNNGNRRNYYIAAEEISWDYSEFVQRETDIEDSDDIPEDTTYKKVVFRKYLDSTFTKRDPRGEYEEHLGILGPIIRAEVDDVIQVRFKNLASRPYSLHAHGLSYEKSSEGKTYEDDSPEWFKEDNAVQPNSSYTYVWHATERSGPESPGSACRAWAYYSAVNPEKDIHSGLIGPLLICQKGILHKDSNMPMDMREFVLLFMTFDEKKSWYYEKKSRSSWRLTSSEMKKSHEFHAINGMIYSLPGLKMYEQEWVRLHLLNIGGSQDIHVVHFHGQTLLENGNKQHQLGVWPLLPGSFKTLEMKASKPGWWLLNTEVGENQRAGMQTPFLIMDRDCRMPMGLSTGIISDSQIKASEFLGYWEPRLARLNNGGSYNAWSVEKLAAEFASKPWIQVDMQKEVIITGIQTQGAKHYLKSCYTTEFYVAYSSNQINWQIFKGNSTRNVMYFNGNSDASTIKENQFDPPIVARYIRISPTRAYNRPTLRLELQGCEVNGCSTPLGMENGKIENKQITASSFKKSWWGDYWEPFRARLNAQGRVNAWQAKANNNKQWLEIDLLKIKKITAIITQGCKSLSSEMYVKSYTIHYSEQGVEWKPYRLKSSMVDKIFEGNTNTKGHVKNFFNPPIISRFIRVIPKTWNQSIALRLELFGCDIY

free factor Xa, sequence (P00742 235-488 limits assumed): as the sequence (P00742 235-488 limits assumed) above
free factor Xa, sequence (P00742 41-179 partner limits assumed): as the sequence (P00742 41-179 partner limits assumed) above
T1 sequence (P00742 235-488 limits assumed): as the sequence (P00742 235-488 limits assumed) above
T1 sequence (P00742 41-179 partner limits assumed): as the sequence (P00742 41-179 partner limits assumed) above

For `CCC(C)O.COC(=O)[C@H](Cc1cccc(C(=N)N)c1)[C@@H](C)NC(=O)c1ccc(-c2cc[n+]([O-])cc2)cc1.COC(=O)[C@H](Cc1cccc(C(=N)N)c1)[C@@H](C)NC(=O)c1ccc(-c2cc[n+]([O-])cc2)cc1.Cl.Cl` [Methyl(2R,3R)-2-{3-[amino(imino)methyl]benzyl}-3-{[4-(1-oxidopyridin-4-yl)benzoyl]amino}butanoate monohydrochloride-hemi-2-butanol-solvate], the “Change In Mass (%) Desorption” value ([1]; Cycle 1, Target RH 0.0%) was 0.35%, the “Change In Mass (%) Sorption” value ([1]; Cycle 1, Target RH 0.0%) was 0.00% and the “Change In Mass (%) Desorption” value ([1]; Cycle 1, Target RH 10.0%) was 3.33%. The “Change In Mass (%) Hysteresis” value ([1]; Cycle 1, Target RH 10.0%) was 2.54%, the “Change In Mass (%) Sorption” value ([1]; Cycle 1, Target RH 10.0%) was 0.79% and the “Change In Mass (%) Desorption” value ([1]; Cycle 1, Target RH 20.0%) was 5.29%. The “Change In Mass (%) Hysteresis” value ([1]; Cycle 1, Target RH 20.0%) was 4.01%, the “Change In Mass (%) Sorption” value ([1]; Cycle 1, Target RH 20.0%) was 1.28% and the “Change In Mass (%) Desorption” value ([1]; Cycle 1, Target RH 40.0%) was 7.14%. The “Change In Mass (%) Hysteresis” value ([1]; Cycle 1, Target RH 40.0%) was 4.91%, the “Change In Mass (%) Sorption” value ([1]; Cycle 1, Target RH 40.0%) was 2.22% and the “Change In Mass (%) Desorption” value ([1]; Cycle 1, Target RH 60.0%) was 9.78%. For the same compound, the “Change In Mass (%) Hysteresis” value ([1]; Cycle 1, Target RH 60.0%) was 6.09%, the “Change In Mass (%) Sorption” value ([1]; Cycle 1, Target RH 60.0%) was 3.69% and the “Change In Mass (%) Desorption” value ([1]; Cycle 1, Target RH 80.0%) was 16.92%. The “Change In Mass (%) Hysteresis” value ([1]; Cycle 1, Target RH 80.0%) was −0.87%, the “Change In Mass (%) Sorption” value ([1]; Cycle 1, Target RH 80.0%) was 17.79% and the “Change In Mass (%) Desorption” value ([1]; Cycle 1, Target RH 90.0%) was 26.07%. For the same compound, the “Change In Mass (%) Hysteresis” value ([1]; Cycle 1, Target RH 90.0%) was −0.59%, the “Change In Mass (%) Sorption” value ([1]; Cycle 1, Target RH 90.0%) was 26.66% and the “Change In Mass (%) Desorption” value ([1]; Cycle 1, Target RH 95.0%) was 34.13%. For the same compound, the “Change In Mass (%) Sorption” value ([1]; Cycle 1, Target RH 95.0%) was 34.13%, the “Change In Mass (%) Desorption” value ([1]; Cycle 2, Target RH 0.0%) was 0.34% and the “Change In Mass (%) Sorption” value ([1]; Cycle 2, Target RH 0.0%) was 0.35%. For the same compound, the “Change In Mass (%) Desorption” value ([1]; Cycle 2, Target RH 10.0%) was 3.17%, the “Change In Mass (%) Hysteresis” value ([1]; Cycle 2, Target RH 10.0%) was 2.48% and the “Change In Mass (%) Sorption” value ([1]; Cycle 2, Target RH 10.0%) was 0.69%. For the same compound, the “Change In Mass (%) Desorption” value ([1]; Cycle 2, Target RH 20.0%) was 4.97%, the “Change In Mass (%) Hysteresis” value ([1]; Cycle 2, Target RH 20.0%) was 3.65% and the “Change In Mass (%) Sorption” value ([1]; Cycle 2, Target RH 20.0%) was 1.32%. For the same compound, the “Change In Mass (%) Desorption” value ([1]; Cycle 2, Target RH 40.0%) was 6.78%, the “Change In Mass (%) Hysteresis” value ([1]; Cycle 2, Target RH 40.0%) was 4.11% and the “Change In Mass (%) Sorption” value ([1]; Cycle 2, Target RH 40.0%) was 2.67%. The “Change In Mass (%) Desorption” value ([1]; Cycle 2, Target RH 60.0%) was 9.41%, the “Change In Mass (%) Hysteresis” value ([1]; Cycle 2, Target RH 60.0%) was 4.84% and the “Change In Mass (%) Sorption” value ([1]; Cycle 2, Target RH 60.0%) was 4.57%. The “Change In Mass (%) Desorption” value ([1]; Cycle 2, Target RH 80.0%) was 16.37%, the “Change In Mass (%) Hysteresis” value ([1]; Cycle 2, Target RH 80.0%) was 2.94% and the “Change In Mass (%) Sorption” value ([1]; Cycle 2, Target RH 80.0%) was 13.43%. For the same compound, the “Change In Mass (%) Desorption” value ([1]; Cycle 2, Target RH 90.0%) was 25.32%, the “Change In Mass (%) Hysteresis” value ([1]; Cycle 2, Target RH 90.0%) was 1.41% and the “Change In Mass (%) Sorption” value ([1]; Cycle 2, Target RH 90.0%) was 23.91%. The “Change In Mass (%) Desorption” value ([1]; Cycle 2, Target RH 95.0%) was 32.86%, the “Change In Mass (%) Sorption” value ([1]; Cycle 2, Target RH 95.0%) was 32.86% and the “hygroscopicity (absorption or adsorption of water molecules from the surrounding environment)” value [1] was “hygroscopic”.
For `COC(=O)[C@H](Cc1cccc(C(=N)N)c1)[C@@H](C)NC(=O)c1ccc(-c2cc[n+]([O-])cc2)cc1` (mixture of isomers) [Otamixaban, Methyl(2R,3R)-2-{3-[amino(imino)methyl]benzyl}-3-{[4-(1-oxidopyridin-4-yl)benzoyl]amino}butanoate], the “factor Xa inhibition in patients” value (factor Xa) is listed as “dose-dependent, rapid direct factor Xa inhibition”, the “efficacy in models of thrombosis” value (models of thrombosis) is listed as “highly efficacious” and the “reduction of prothrombin fragments 1+2” value [2] is listed as “reduced prothrombin fragments 1+2 significantly more than unfractionated heparin”. For the same compound, the “inhibition of free factor Xa” value (free factor Xa) was “inhibited”, the clinical efficacy (acute coronary syndrome) was “efficacious” and the “clinical safety and tolerability” value (acute coronary syndrome) was “safe and well tolerated”. The “inhibition of factor Xa assembled in the prothrombinase complex” value [3] was “inhibited”.
With `COC(=O)[C@H](Cc1cccc(C(=N)N)c1)[C@@H](C)NC(=O)c1ccc(-c2cc[n+]([O-])cc2)cc1.O=C(O)c1ccccc1` [benzoic acid salt of methyl(2R,3R)-2-{3-[amino(imino)methyl]benzyl}-3-{[4-(1-oxidopyridin-4-yl)benzoyl]amino}butanoate] the “Change In Mass (%) Desorption” value ([1]; Cycle 1, Target RH 0.0%) was −0.035%, the “Change In Mass (%) Sorption” value ([1]; Cycle 1, Target RH 0.0%) was 0.000% and the “Change In Mass (%) Desorption” value ([1]; Cycle 1, Target RH 10.0%) was 0.215%. For the same compound, the “Change In Mass (%) Hysteresis” value ([1]; Cycle 1, Target RH 10.0%) was 0.119%, the “Change In Mass (%) Sorption” value ([1]; Cycle 1, Target RH 10.0%) was 0.096% and the “Change In Mass (%) Desorption” value ([1]; Cycle 1, Target RH 20.0%) was 0.326%. For the same compound, the “Change In Mass (%) Hysteresis” value ([1]; Cycle 1, Target RH 20.0%) was 0.146%, the “Change In Mass (%) Sorption” value ([1]; Cycle 1, Target RH 20.0%) was 0.180% and the “Change In Mass (%) Desorption” value ([1]; Cycle 1, Target RH 40.0%) was 0.534%. For the same compound, the “Change In Mass (%) Hysteresis” value ([1]; Cycle 1, Target RH 40.0%) was 0.172%, the “Change In Mass (%) Sorption” value ([1]; Cycle 1, Target RH 40.0%) was 0.363% and the “Change In Mass (%) Desorption” value ([1]; Cycle 1, Target RH 60.0%) was 0.810%. For the same compound, the “Change In Mass (%) Hysteresis” value ([1]; Cycle 1, Target RH 60.0%) was 0.214%, the “Change In Mass (%) Sorption” value ([1]; Cycle 1, Target RH 60.0%) was 0.596% and the “Change In Mass (%) Desorption” value ([1]; Cycle 1, Target RH 80.0%) was 1.300%. For the same compound, the “Change In Mass (%) Hysteresis” value ([1]; Cycle 1, Target RH 80.0%) was 0.374%, the “Change In Mass (%) Sorption” value ([1]; Cycle 1, Target RH 80.0%) was 0.926% and the “Change In Mass (%) Desorption” value ([1]; Cycle 1, Target RH 90.0%) was 1.697%. The “Change In Mass (%) Hysteresis” value ([1]; Cycle 1, Target RH 90.0%) was 0.290%, the “Change In Mass (%) Sorption” value ([1]; Cycle 1, Target RH 90.0%) was 1.408% and the “Change In Mass (%) Desorption” value ([1]; Cycle 1, Target RH 95.0%) was 2.031%. For the same compound, the “Change In Mass (%) Sorption” value ([1]; Cycle 1, Target RH 95.0%) was 2.031%, the “Change In Mass (%) Desorption” value ([1]; Cycle 2, Target RH 0.0%) was −0.056% and the “Change In Mass (%) Sorption” value ([1]; Cycle 2, Target RH 0.0%) was −0.035%. For the same compound, the “Change In Mass (%) Desorption” value ([1]; Cycle 2, Target RH 10.0%) was 0.198%, the “Change In Mass (%) Hysteresis” value ([1]; Cycle 2, Target RH 10.0%) was 0.089% and the “Change In Mass (%) Sorption” value ([1]; Cycle 2, Target RH 10.0%) was 0.109%. The “Change In Mass (%) Desorption” value ([1]; Cycle 2, Target RH 20.0%) was 0.310%, the “Change In Mass (%) Hysteresis” value ([1]; Cycle 2, Target RH 20.0%) was 0.084% and the “Change In Mass (%) Sorption” value ([1]; Cycle 2, Target RH 20.0%) was 0.226%. For the same compound, the “Change In Mass (%) Desorption” value ([1]; Cycle 2, Target RH 40.0%) was 0.523%, the “Change In Mass (%) Hysteresis” value ([1]; Cycle 2, Target RH 40.0%) was 0.062% and the “Change In Mass (%) Sorption” value ([1]; Cycle 2, Target RH 40.0%) was 0.461%. The “Change In Mass (%) Desorption” value ([1]; Cycle 2, Target RH 60.0%) was 0.800%, the “Change In Mass (%) Hysteresis” value ([1]; Cycle 2, Target RH 60.0%) was 0.058% and the “Change In Mass (%) Sorption” value ([1]; Cycle 2, Target RH 60.0%) was 0.742%. The “Change In Mass (%) Desorption” value ([1]; Cycle 2, Target RH 80.0%) was 1.299%, the “Change In Mass (%) Hysteresis” value ([1]; Cycle 2, Target RH 80.0%) was 0.058% and the “Change In Mass (%) Sorption” value ([1]; Cycle 2, Target RH 80.0%) was 1.241%. The “Change In Mass (%) Desorption” value ([1]; Cycle 2, Target RH 90.0%) was 1.687%, the “Change In Mass (%) Hysteresis” value ([1]; Cycle 2, Target RH 90.0%) was 0.071% and the “Change In Mass (%) Sorption” value ([1]; Cycle 2, Target RH 90.0%) was 1.616%. The “Change In Mass (%) Desorption” value ([1]; Cycle 2, Target RH 95.0%) was 1.999%, the “Change In Mass (%) Sorption” value ([1]; Cycle 2, Target RH 95.0%) was 1.999% and the “water uptake (DVS)” value ([1]; at 80% RH) was 1.1%. The “water uptake (DVS)” value ([1]; at 95% RH) was 2.0% and the “hygroscopicity (absorption or adsorption of water molecules from the surrounding environment)” value [1] was “favorable reduced absorption or adsorption of water molecules”.
